Counter-ions that a name gives are not always drawn. Like-named read-outs stand apart in the source and are kept apart here. Marks after values point to notes of the source that are not given here. Each block holds one compound with its values, some of them ahead of it.
Experiments:
Format in all cases: physicochemical
[1] = Solid stability evaluation (I/II), XRPD and HPLC; conditions: for Chemical stability compared with free form: 60° C. 1 day, 25° C./60% RH or 40° C./75% RH 1 week
Outline: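 Tris salt Form A and amorphous free form of Compound I, and Compound II citrate salt Form A, Tris salt Form B and free form, stored as solids at 60° C. for 1 day and at 25° C./60% RH or 40° C./75% RH for 1 week. Physical form checked by XRPD and chemical stability by HPLC.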

Hygroscopicity, DVS test = conditions: for Hygroscopicity: according to Chinese Pharmacopeia 2015
Method: DVS was measured via a SMS (Surface Measurement Systems) DVS Intrinsic. The relative humidity at 25° C. were calibrated against deliquescence point of LiCl, Mg(NO3)2 and KCl.
To investigate the solid form stability as a function of humidity, DVS isotherm plot of 1:1 Compound I Tris Salt (Form A) was collected between 0% RH and 95% RH at 25° C. […] Considering the 1:1 Compound I Tris Salt (Form A) is a hydrate and may dehydrate under low humidity, DVS was also tested at 20 and 30° C. to further confirm the suitable storage condition and avoid dehydration. […] Combing the VH-XRPD and DVS results: the condition of 20-30° C. and relative humidity ≥40% RH is suitable for the storage of 1:1 Compound I Tris Salt (Form A).
To investigate the solid form stability as a function of humidity, DVS isotherm plots of 1:1 Compound II Citrate Salt (Form A) and 1:1 Compound II Tris Salt (Form B) were collected at 25° C. between 0% RH and 95% RH. […] The water uptake increased by 0.97% from 10% to 80% RH and a platform was observed.

[2] = Kinetic solubility test in water and bio-relevant media (SGF, FaSSIF, FeSSIF); conditions: for Purity (%), area percentage of API: for reference only (suspensions); for Solubility in H2O, comparison in words: compared with the other tested materials; for FC: form change: residual solids by XRPD; for pH: supernatant
Outline: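 Solids (~1 mg/mL loading as freeform) rolled at 25 rpm, 37° C in water, SGF (pH 1.8), FaSSIF (pH 6.5) or FeSSIF (pH 5.0). Sampled at 1, 4 and 24 h, centrifuged and filtered (0.45 μm PTFE). Supernatant concentration by HPLC, with pH measured; residual solids checked by XRPD.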

[3] = Solid stability evaluation (II/II), HPLC in triplicate
Method: The chemical stability of 1:1 Compound II Citrate Salt (Form A) and 1:1 Compound II Tris Salt (Form B) was further evaluated at solid state, samples were stored under the ambient condition or 40° C./75% RH for 1 day and 3 days, respectively.

[4] = Ambient condition (open), 1 day
[5] = Ambient condition (open), 3 days

- Purity (area %) ([1]; 25° C./60% RH (open), 1 week): 94.70 area %
- Form change ([1]; 40° C./75% RH (open), 1 week): No
- Observation ([1]; 40° C./75% RH (open), 1 week): Yellowish
- Purity (area %) ([1]; 40° C./75% RH (open), 1 week): 95.40 area %
- Chemical stability compared with free form [1]: better chemical stability
- Purity (area %) ([1]; 60° C. (capped), 1 day): 93.49 area %
- Purity (area %) ([1]; Initial): 95.46 area %
- Form change after DVS test (Hygroscopicity, DVS test; 20° C.): No
- Water uptake (80% RH) (Hygroscopicity, DVS test; 20° C.): 2.24%
- Hygroscopicity (Hygroscopicity, DVS test; 20° C.): Hygroscopic
- Form change after DVS test (Hygroscopicity, DVS test; 25° C.): No
- Water uptake (80% RH) (Hygroscopicity, DVS test; 25° C.): 2.77%
- Hygroscopicity (Hygroscopicity, DVS test; 25° C.): Hygroscopic
- Form change after DVS test (Hygroscopicity, DVS test; 25° C., listed as 1:1 Compound I Tris Salt (Form A)): No form change
- Form change after DVS test (Hygroscopicity, DVS test; 30° C.): No
- Water uptake (80% RH) (Hygroscopicity, DVS test; 30° C.): 2.99%
- Hygroscopicity (Hygroscopicity, DVS test; 30° C.): Hygroscopic
- Purity (%), area percentage of API ([2]; FaSSIF, 1 hour): 92.63%
- S: solubility ([2]; FaSSIF, 4 hours, 37° C.): 10 µg/mL
- S: solubility ([2]; FaSSIF, 24 hours, 37° C.): 10 µg/mL
- Purity (%), area percentage of API ([2]; FaSSIF, 24 hours): 58.70%
- Purity (%), area percentage of API ([2]; FeSSIF, 1 hour): 94.61%
- S: solubility ([2]; FeSSIF, 4 hours, 37° C.): 200 µg/mL
- Purity (%), area percentage of API ([2]; FeSSIF, 4 hours): 81.75%
- S: solubility ([2]; FeSSIF, 24 hours, 37° C.): 30 µg/mL
- Purity (%), area percentage of API ([2]; FeSSIF, 24 hours): 43.32%
- S: solubility ([2]; H2O, 1 hour, 37° C.): 100 µg/mL
- Purity (%), area percentage of API ([2]; H2O, 1 hour): 96.74%
- S: solubility ([2]; H2O, 4 hours, 37° C.): 100 µg/mL
- Purity (%), area percentage of API ([2]; H2O, 4 hours): 89.77%
- Purity (%), area percentage of API ([2]; H2O, 24 hours): 60.35%
- Solubility in H2O, comparison in words ([2]; H2O): better solubility
- solubility at 1 h ([2]; SGF, 37 °C, pH 1.8, simulated gastric fluid, thermodynamic from solid, SGF, 1 hour, 37° C., read-out: S: solubility): 400 µg/mL
- solubility at 4 h ([2]; SGF, 37 °C, pH 1.8, simulated gastric fluid, thermodynamic from solid, SGF, 4 hours, 37° C., read-out: S: solubility): 400 µg/mL
- solubility at 24 h ([2]; SGF, 37 °C, pH 1.8, simulated gastric fluid, thermodynamic from solid, SGF, 24 hours, 37° C., read-out: S: solubility): 500 µg/mL
- Purity (%), area percentage of API ([2]; SGF, 1 hour): 93.12%
- Purity (%), area percentage of API ([2]; SGF, 4 hours): 93.05%
- Purity (%), area percentage of API ([2]; SGF, 24 hours): 89.49%
- Form change in SGF, in words ([2]; SGF, XRPD after solubility test): Form change was observed
- FC: form change ([2]; FaSSIF, 24 hours): No
- FC: form change ([2]; SGF, 1 hour): Yes
- FC: form change ([2]; SGF, 4 hours): Yes
- FC: form change ([2]; SGF, 24 hours): Yes
- pH ([2]; FaSSIF, 4 hours): 6.6
- pH ([2]; FaSSIF, 24 hours): 6.6
- pH ([2]; FeSSIF, 1 hour): 5.1
- pH ([2]; H2O, 1 hour): 8.0
- pH ([2]; H2O, 4 hours): 8.2
- pH ([2]; H2O, 24 hours): 8.4
- pH ([2]; SGF, 1 hour): 1.9
- pH ([2]; SGF, 4 hours): 2.0
- pH ([2]; SGF, 24 hours): 1.9
- solubility at 24 h ([2]; water, 37 °C, water, thermodynamic from solid, H2O, 24 hours, 37° C., read-out: S: solubility): 50 µg/mL
- Ave. Purity (area %) ([3]; 40° C./75% RH (open), 1 day): 94.8 area %
- Ave. Purity (area %) ([3]; 40° C./75% RH (open), 3 days): 94.7 area %
- Ave. Purity (area %) [3, 4]: 94.8 area %
- Ave. Purity (area %) [3, 5]: 94.8 area %
- Ave. Purity (area %) ([3]; Initial): 94.5 area %
- Chemical stability at solid state, in words ([3]; ambient condition or 40° C./75% RH, 1 day and 3 days): better chemical stability
Structure (SMILES): O=C(O)c1ccc2nc(CN3CC=C(c4cccc(OCc5ccc(Cl)cc5F)c4)CC3)n(C[C@@H]3CCO3)c2c1 [Tris salt Form A, (S)-2-((4-(3-((4-chloro-2-fluorobenzyl)-oxy)phenyl)-3,6-dihydropyridin-1(2H)-yl)methyl)-1-(oxetan-2-ylmethyl)-1H-benzo[d]-imidazole-6-carboxylic acid]

- Form change ([1]; 25° C./60% RH (open), 1 week): No
- Observation ([1]; 25° C./60% RH (open), 1 week): Yellow
- Purity (area %) ([1]; 25° C./60% RH (open), 1 week): 93.86 area %
- Form change ([1]; 40° C./75% RH (open), 1 week): No
- Observation ([1]; 40° C./75% RH (open), 1 week): Yellow
- Purity (area %) ([1]; 40° C./75% RH (open), 1 week): 94.13 area %
- Chemical stability compared with free form [1]: better chemical stability
- Form change ([1]; 60° C. (capped), 1 day): No
- Observation ([1]; 60° C. (capped), 1 day): Yellow
- Purity (area %) ([1]; 60° C. (capped), 1 day): 92.98 area %
- Form change ([1]; Initial): No
- Observation ([1]; Initial): Yellowish
- Purity (area %) ([1]; Initial): 94.56 area %
- Form change after DVS test (Hygroscopicity, DVS test; 25° C.): No
- Hygroscopicity (Hygroscopicity, DVS test; 25° C.): Slightly hygroscopic
- Water uptake increase between 0% and 10% RH (Hygroscopicity, DVS test; 25° C., cycle 2 sorption curve): 2.47%
- Water uptake from 10% RH to 80% RH (Hygroscopicity, DVS test; 25° C.): 0.97%*
- Water uptake from 10% RH to 80% RH (Hygroscopicity, DVS test; 25° C., listed as 1:1 Compound II Tris Salt (Form B)): 0.97%
- S: solubility ([2]; FaSSIF, 1 hour, 37° C.): 70 µg/mL
- Purity (%), area percentage of API ([2]; FaSSIF, 1 hour): 72.58%
- S: solubility ([2]; FaSSIF, 4 hours, 37° C.): 50 µg/mL
- Purity (%), area percentage of API ([2]; FaSSIF, 4 hours): 59.86%
- S: solubility ([2]; FaSSIF, 24 hours, 37° C.): 100 µg/mL
- Purity (%), area percentage of API ([2]; FaSSIF, 24 hours): 72.13%
- S: solubility ([2]; FeSSIF, 1 hour, 37° C.): 200 µg/mL
- Purity (%), area percentage of API ([2]; FeSSIF, 1 hour): 98.18%
- S: solubility ([2]; FeSSIF, 4 hours, 37° C.): 300 µg/mL
- Purity (%), area percentage of API ([2]; FeSSIF, 4 hours): 93.37%
- S: solubility ([2]; FeSSIF, 24 hours, 37° C.): 300 µg/mL
- Purity (%), area percentage of API ([2]; FeSSIF, 24 hours): 80.52%
- S: solubility ([2]; H2O, 1 hour, 37° C.): 400 µg/mL
- Purity (%), area percentage of API ([2]; H2O, 1 hour): 93.07%
- S: solubility ([2]; H2O, 4 hours, 37° C.): 900 µg/mL
- Purity (%), area percentage of API ([2]; H2O, 4 hours): 93.13%
- S: solubility ([2]; H2O, 24 hours, 37° C.): 600 µg/mL
- Purity (%), area percentage of API ([2]; H2O, 24 hours): 92.03%
- Solubility in H2O, comparison in words ([2]; H2O): better solubility
- S: solubility ([2]; SGF, 1 hour, 37° C.): 600 µg/mL
- Purity (%), area percentage of API ([2]; SGF, 1 hour): 93.44%
- S: solubility ([2]; SGF, 4 hours, 37° C.): 200 µg/mL
- Purity (%), area percentage of API ([2]; SGF, 4 hours): 84.69%
- S: solubility ([2]; SGF, 24 hours, 37° C.): 200 µg/mL
- Purity (%), area percentage of API ([2]; SGF, 24 hours): 82.04%
- FC: form change ([2]; FaSSIF, 4 hours): Yes
- FC: form change ([2]; FaSSIF, 24 hours): Yes
- FC: form change ([2]; FeSSIF, 1 hour): No
- FC: form change ([2]; FeSSIF, 4 hours): Yes
- FC: form change ([2]; FeSSIF, 24 hours): Yes
- FC: form change ([2]; H2O, 1 hour): No
- FC: form change ([2]; H2O, 4 hours): Yes
- FC: form change ([2]; H2O, 24 hours): Yes
- FC: form change ([2]; SGF, 1 hour): Yes
- FC: form change ([2]; SGF, 4 hours): Yes
- FC: form change ([2]; SGF, 24 hours): Yes
- pH ([2]; FaSSIF, 1 hour): 6.6
- pH ([2]; FaSSIF, 4 hours): 6.6
- pH ([2]; FaSSIF, 24 hours): 6.5
- pH ([2]; FeSSIF, 1 hour): 5.1
- pH ([2]; FeSSIF, 4 hours): 5.1
- pH ([2]; FeSSIF, 24 hours): 5.0
- pH ([2]; H2O, 1 hour): 7.6
- pH ([2]; H2O, 4 hours): 7.8
- pH ([2]; H2O, 24 hours): 7.9
- pH ([2]; SGF, 1 hour): 1.9
- pH ([2]; SGF, 4 hours): 2.0
- pH ([2]; SGF, 24 hours): 2.0
- Solubility in SGF, FaSSIF and FeSSIF compared with freeform ([2]; within 1 hour): higher than that of freeform
- Ave. Purity (area %) ([3]; 40° C./75% RH (open), 1 day): 94.5 area %
- Ave. Purity (area %) ([3]; 40° C./75% RH (open), 3 days): 94.8 area %
- Ave. Purity (area %) [3, 4]: 94.4 area %
- Ave. Purity (area %) [3, 5]: 94.2 area %
- Ave. Purity (area %) ([3]; Initial): 95.5 area %
Structure (SMILES): N#Cc1ccc(COc2cccc(C3=CCN(Cc4nc5ccc(C(=O)O)cc5n4C[C@@H]4CCO4)CC3)n2)c(F)c1 [Tris salt Form B, (S)-2-((6-((4-cyano-2-fluorobenzyl)oxy)-3′,6′-dihydro-[2,4′-bipyridin]-1′(2′H)-yl)methyl)-1-(oxetan-2-ylmethyl)-1H-benzo[d]imidazole-6-carboxylic acid]

Source: patent US20230203023A1, “SALT AND CRYSTAL FORMS OF GLP-1R AGONISTS AND USES THEREOF” (QILU REGOR THERAPEUTICS INC., priority 2020, published 2023)
